Measurements: PMC11050599, “Novel Tetracyclic Azaphenothiazines with the Quinoline Ring as New Anticancer and Antibacterial Derivatives of Chlorpromazine” (International Journal of Molecular Sciences, 2024)
In brackets after ≈: the same amount, converted by molar mass.

Assays:
PC3 (prostate cancer) = assay: MTT assay, PC3 cells; type: cell-based, human; conditions: for IC50: Homo sapiens, PC-3, MTT, 72 h, read-out: IC50 PC3; for SI PC3: SI = IC50 for normal cell line (HaCaT)/IC50 cancer cell line
Description: (§1) The human cell lines, such as A549 (lung cancer), MDA-MB-231 (breast cancer), MiaPaca-2 (pancreatic cancer), PC3 (metastatic prostate cancer), HCT-116 (colon carcinoma), and HaCaT (immortalized keratinocytes), were sourced from the American Type Culture Collection (ATCC) in Rockville, USA. Culturing conditions varied as follows: HCT116 cells were cultured in MEM (ThermoSci, Waltham, MA, USA), A549, MDA-MB-231, MiaPaca, HaCaT cells in DMEM High Glucose and PC3 cells were cultured in RPMI (Biowest SAS, Nuaillé, France). The growth medium consisted of 10% fetal bovine serum (FBS, Sigma-Aldrich, St. Louis, MO, USA), 20 mM HEPES (Biowest, Nuaillé, France), and antibiotics (100 U/mL of penicillin and 100 μg/mL of streptomycin) from Gibco, Grand Island, NY, USA. […] These compounds were added to 96-well plates containing study cells (1 × 10^4 cells per well) and incubated for 72 h. […] Cell absorbance results were incorporated into the formula for calculating the relative MTT level (%), enabling the assessment of cell viability following exposure to the test compounds. The cell viability percentage represents the MTT reduction in cells treated with the test compounds compared to the control sample, where only the medium was added to the cells.

HCT116 (colon cancer) = assay: MTT assay, HCT116 cells; type: cell-based, human; conditions: for IC50: Homo sapiens, HCT-116, MTT, 72 h, read-out: IC50 HCT116
Description: as §1

[1] = tested on: MDA-MB-231 (breast cancer); assay: MTT assay, MDA-MB-231 cells; type: cell-based, human; conditions: for IC50: Homo sapiens, MDA-MB-231, MTT, 72 h, MDA-MB231, read-out: IC50 MDA; for SI MDA: SI = IC50 for normal cell line (HaCaT)/IC50 cancer cell line
Description: as §1

A549 (lung cancer) = assay: MTT assay, A549 cells; type: cell-based, human; conditions: for IC50: Homo sapiens, A549, MTT, 72 h, mean SD, read-out: IC50 A549
Description: as §1

[2] = tested on: HaCaT (immortalized human keratinocytes); assay: MTT assay, HaCaT normal cells; type: cell-based; conditions: Homo sapiens, HaCaT; MTT, 72 h, normal cells; read-out: IC50 HaCaT (Table 3)
Description: as §1

[3] = tested on: S. epidermidis ATCC 35984; assay: MIC broth microdilution; type: cell-based; conditions: Staphylococcus epidermidis, ATCC35984; 19 h, 35 °C; read-out: MIC S. epidermidis ATCC 35984
Text: (§2) To evaluate the antibacterial effectiveness of chloroquinobenzothiazine derivatives, various bacterial strains from international microbe collections such as the American Type Culture Collection (ATCC) and the National Collection of Type Culture (NCTC) were examined, alongside a panel of clinical rods. This included two Gram-negative organisms, E. coli ATCC 25922 and P. aeruginosa ATCC 15442, and a series of six Gram-positive strains: S. aureus NCTC 4163; S. aureus ATCC 29213, 25923, and 6538; and S. epidermidis ATCC 12228 and 35984. […] The MIC was determined using the two-fold serial broth microdilution method in 96-well microtitration plates containing Mueller-Hinton II broth medium (Becton Dickinson, Franklin Lakes, NJ, USA). The final inoculum for all tested bacteria was adjusted to […] (colony-forming units per milliliter). The stock solution of the tested compounds was prepared in dimethyl sulfoxide (DMSO) and diluted to a maximum of 1% solvent content with a sterile medium.

S. aureus NCTC 4163 = assay: MIC broth microdilution; type: cell-based; conditions: Staphylococcus aureus, NCTC4163; 19 h, 35 °C; read-out: MIC S. aureus NCTC 4163
Text: as §2

[4] = tested on: S. epidermidis ATCC 12228; assay: MIC broth microdilution; type: cell-based; conditions: Staphylococcus epidermidis, ATCC12228; 19 h, 35 °C; read-out: MIC S. epidermidis ATCC 12228
Text: as §2

S. aureus ATCC 29213 = assay: MIC broth microdilution; type: cell-based; conditions: Staphylococcus aureus, ATCC29213; 19 h, 35 °C; read-out: MIC S. aureus ATCC 29213
Text: as §2

P. aeruginosa ATCC 15442 = assay: MIC broth microdilution; type: cell-based; conditions: Pseudomonas aeruginosa, ATCC15442; 19 h, 35 °C; read-out: MIC P. aeruginosa ATCC 15442
Text: as §2

S. aureus ATCC 6538 = assay: MIC broth microdilution; type: cell-based; conditions: Staphylococcus aureus, ATCC6538; 19 h, 35 °C; read-out: MIC S. aureus ATCC 6538
Text: as §2

E. coli ATCC 25922 = assay: MIC broth microdilution; type: cell-based; conditions: Escherichia coli, ATCC25922; 19 h, 35 °C; read-out: MIC E. coli ATCC 25922
Text: as §2

S. aureus ATCC 25923 = assay: MIC broth microdilution; type: cell-based; conditions: Staphylococcus aureus, ATCC25923; 19 h, 35 °C; read-out: MIC S. aureus ATCC 25923
Text: as §2

cancer cell lines = assay: MTT assay, summary over several cell lines; type: cell-based, human; conditions: Homo sapiens; range over two cell lines not given; read-out: IC50 range against two tested cell lines
Description: as §1

[5] = tested on: MiaPaCa-2 (pancreas cancer); assay: MTT assay, MiaPaCa-2 cells; type: cell-based, human; conditions: for IC50: Homo sapiens, MIA PaCa-2, MTT, 72 h, read-out: IC50 MiaPaCa-2; for SI MiaPaCa-2: SI = IC50 for normal cell line (HaCaT)/IC50 cancer cell line
Description: as §1

MiaPaCa-2 cells = assay: Annexin V-FITC/PI apoptosis flow cytometry, MiaPaCa-2; type: cell-based, human
Description: (§3) To analyze the number of cells in early apoptosis, late apoptosis, or necrosis, A549, MiaPaca-2, and HCT-116 cell lines were cultured in 6-well plates with a seeding density of 1 × 10^5 cells per well. These cells were then treated with selected compounds (4, 5, and 8) at their respective IC50 concentrations and incubated for 72 h. Subsequently, a commercially available kit, the FITC: Annexin V Apoptosis Detection Kit I from BD Biosciences Pharmingen in San Jose, CA, USA, was utilized to assess apoptosis. After 72 h the cells were harvested, washed, and labeled with Annexin V-FITC and propidium iodide (PI) following the manufacturer’s protocol (Becton Dickinson), as previously described. The stained cells were analyzed by flow cytometry. The cells were identified as early apoptotic (Annexin V+/PI−) or late apoptotic/necrotic (Annexin V+/PI+).

A549 cells = assay: Annexin V-FITC/PI apoptosis flow cytometry, A549; type: cell-based, human
Description: as §3

HCT116 cells [6] = assay: Annexin V-FITC/PI apoptosis flow cytometry, HCT116; type: cell-based, human
Description: as §3

HCT116 cells [7] = assay: Cell cycle analysis by flow cytometry, HCT116; type: cell-based, human; conditions: IC50, 24 h, compared to the control
Description: In brief, cells were seeded at a density of 1 × 10^5 cells/well on a six-well plate and allowed to adhere for 24 h. […] Both population cells (the attached and detached) were collected and centrifuged at 400× g for 5 min at 4 °C. After centrifugation, the cells were washed twice with 0.9% NaCl and subsequently fixed in 500 μL of 70 % cold ethanol overnight.
Before analysis, the fixed cells underwent another centrifugation step at 850× g for 5 min at 4 °C and were washed with PBS. Following the washes, the cells were incubated with 50 μL of RNase (100 μg/mL) and 200 μL of propidium iodide (PI) (50 μg/mL) at 37 °C for 30 min in the dark. Finally, 100 μL of PBS was added to each sample. Flow cytometry (Becton Dickinson FACS Verse, Franklin Lakes, NJ, USA) was then used to analyze the cell cycle distribution, identifying cells in various stages including sub-G1, G0/G1, S, and G2/M phases. Each assay was performed in quadruplicate.

[8] = SI = IC50 for normal cell line (HaCaT)/IC50 cancer cell line
[9] = representative dot plot, Figure 4B, IC50, 72 h
[10] = representative dot plot, Figure 4A, IC50, 72 h
[11] = representative dot plot, Figure 4C, IC50, 72 h

Row | Structure (SMILES) | IC50 (PC3 (prostate cancer)) [µM] | SI PC3 (PC3 (prostate cancer)) | IC50 (HCT116 (colon cancer)) [µM] | IC50 [1] [µM] | SI MDA [1] | IC50 (A549 (lung cancer)) [µM] | IC50 [2] [µM] | MIC [3] [µg/mL] | MIC (S. aureus NCTC 4163) [µg/mL] | MIC [4] [µg/mL] | MIC (S. aureus ATCC 29213) [µg/mL] | MIC (P. aeruginosa ATCC 15442) [µg/mL] | MIC (S. aureus ATCC 6538) [µg/mL] | MIC (E. coli ATCC 25922) [µg/mL] | MIC (S. aureus ATCC 25923) [µg/mL] | IC50 [5] [µM] | SI MiaPaCa-2 [5] | other results
1 | Clc1ccc2c(c1)Nc1nc3ccccc3cc1S2 [Compound 5, 6H-8-chloroquino[3,2-b]benzo[1,4]thiazine] | 76.5 ± 8.1 | 0.7 | 33.5 ± 6.8 | 76.5 ± 0.8 | 0.7 | 14.9 ± 2.7 | 56.5 ± 4.5 | 8 (≈ 28.1 µM) | 8 (≈ 28.1 µM) | 8 (≈ 28.1 µM) | 8 (≈ 28.1 µM) | 256 (≈ 899 µM) | 8 (≈ 28.1 µM) | 256 (≈ 899 µM) | 8 (≈ 28.1 µM) | 11.1 ± 0.4 | 5.0 | SI HCT116 (HCT116 (colon cancer); [8]): 1.7; SI A549 (A549 (lung cancer); [8]): 3.8; IC50 (cancer cell lines): 11.1 to 14.9 µM; cells in early apoptosis, MiaPaCa-2 (MiaPaCa-2 cells; compound at IC50, 72 h): 4.56%; cells in late apoptosis/necrosis, MiaPaCa-2 (MiaPaCa-2 cells; compound at IC50, 72 h): 23%; MiaPaca: Alive (MiaPaCa-2 cells; [9]): 72.68%; MiaPaca: Early Apoptotic (MiaPaCa-2 cells; [9]): 4.56%; MiaPaca: Necrotic (MiaPaCa-2 cells; [9]): 9.46%; MiaPaca: Necrotic/Late Apoptotic (MiaPaCa-2 cells; [9]): 13.29%
2 | CN(C)CCCN1c2cc(Cl)ccc2Sc2cc3ccccc3nc21 [Compound 8, 3-(8-Chloroquino[3,2-b]benzo[1,4]thiazin-6-yl)-N,N-dimethylpropan-1-amine] | 52.1 ± 7.1 | 1.2 | 1.6 ± 0.8 | 52.1 ± 2.7 | 1.2 | 8.2 ± 3.6 | 62.3 ± 2.5 | 8 (≈ 21.6 µM) | 8 (≈ 21.6 µM) | 8 (≈ 21.6 µM) | 8 (≈ 21.6 µM) | 256 (≈ 692 µM) | 8 (≈ 21.6 µM) | 64 (≈ 173 µM) | 8 (≈ 21.6 µM) | 40.2 ± 0.7 | 1.6 | cells in late apoptosis or necrosis, A549 (A549 cells; compound at IC50, 72 h): 42%; A549: Alive (A549 cells; [10]): 62.41%; A549: Early Apoptotic (A549 cells; [10]): 2.39%; A549: Necrotic (A549 cells; [10]): 24.93%; A549: Necrotic/Late Apoptotic (A549 cells; [10]): 10.27%; cells in early apoptosis, HCT116 (HCT116 cells [6]; compound at IC50, 72 h): 9.09 ± 0.5%; cells in late apoptosis/necrosis, HCT116 (HCT116 cells [6]; compound at IC50, 72 h): 8.55 ± 0.33%; HCT-116: Alive (HCT116 cells [6]; [11]): 78.75%; HCT-116: Early Apoptotic (HCT116 cells [6]; [11]): 9.09%; HCT-116: Necrotic (HCT116 cells [6]; [11]): 3.61%; HCT-116: Necrotic/Late Apoptotic (HCT116 cells [6]; [11]): 8.55%; increase in the cell amount at the sub-G1 phase, HCT116 (HCT116 cells [7]): 5 fold; increase in the number of cells in the G2/M phase, HCT116 (HCT116 cells [7]): approximately 1.3 fold; increase in the number of cells in the S phase, HCT116 (HCT116 cells [7]): approximately 2 fold
